# Measurements from patent US6953786B2, “Compositions comprising plant-derived polyphenolic compounds and inhibitors of reactive oxygen species and methods of using thereof” (The Regents of the University of California, priority 2002, dated 2005).
# Columns and labels:
# [1] = tested on: caspase-3; assay: Caspase-3 processing (Western blot); assay type: cell-based, human
# Description: (§1) In order to determine the effect polyphenolic compounds have on caspase-3 activity, the following assay was conducted. BSp73AS cells were culture in the absence of serum or growth factors for 24 hours in 0, 10, 20, and 50 μM of trans-resveratrol and Mia PACA-2 -cells were cultured for 72 hours in the presences of 0, 10, 20, and 50 μM of tran-resveratrol. Cell lysates were then prepared and 50 μg protein aliquots were loaded per lane and blotted with rabbit polyclonal antibody against caspase-3 (Santa Cruz Biotechnology, Santa Cruz, Calif.). The experiment was repeated 3 times with similar results.
# [2] = tested on: Mia PACA-2; assay: TUNEL apoptosis assay in primary tumors and normal tissues; assay type: in vivo, nude mouse
# Description: In order to determine the mechanism of the suppressive effects of quercetin on the growth of the pancreatic cancer, apoptosis in the primary tumors using the TUNEL assay was conducted. See Gukovskaya AS, et al. (1997) Clin Invest 100:1853-1862; Gukovskaya AS, et al. (1996) Gastroenterology 110:875-884; and Sandoval D, et al. (1996) Gastroenterology 111:1081-1091, which are herein incorporated by reference. Specifically, 3 μm tissue section were deparaffinized and rehydrated through a graded series of ethanol and redistilled water. Tissue sections were refixed in 4% paraformaldehyde for 15 minutes at room temperature and then incubated with proteinase K (20 μg/ml in 10 mM Tirs/HCL, pH 7.4-8.0) for 15 minutes at 37° C. DNA breaks were then labeled with terminal deoxytransferase (TdT) and biotinylated deoxyUTP. Staining without TdT enzyme or the biotinylated substrate were used as negative controls. For positive controls, slides were treated with DNase I. Measurements were made by light microscpy observations and values calculated as the percentage of cells positively stained as a percentage of the total number of cells.
# [3] = tested on: PARP; assay: PARP proteolysis (Western blot); assay type: cell-based, human; conditions: Mia PACA-2, 24 hours, 100 μM
# Description: BSp73AS cells were cultured for 6 hours and Mia PACA-2 cells were cultured for 24 hours in the presence or absence of 100 μM of each rutin, quercetin or trans-resveratrol and with or without 50 μM of each […]. The cells were washed twice with PBS and lysed by incubating for 20 minutes at 4° C. in lysis buffer comprising 0.15 M NaCl, 50 mM Tris (pH 7.2), 1% deoxycholic acid (wt/vol), 1% Triton X-100 (wt/vol), 0.1% […] (wt/vol) and 1 mM PMSF, as well as 5 μg/ml each of protease inhibitors, pepstatin, leupeptin, chymostatin, antipain, and aprotinin. Then the cell lysates were centrifuged for 20 minutes at 15,000 g at 4° C. The supernatants were separated by 4-20% SDS-PAGE for 2 hours at 120 V using precast Tris-glycine gels and a Mini-Cell gel apparatus (Novex, San Diego, Calif.). Separated proteins were electrophoretically transferred to a nitrocellulose membrane for 2 hours at 30 V using a Novex Blot Module (Novex, San Diego, Calif.). Nonspecific binding was blocked by 1 hour incubation of nitrocellulose membranes in 5% (wt/vol) nonfat dry milk in Tris-buffered saline (TBS; pH 7.5). Blots were then incubated overnight at 4° C. with rabbit polyclonal antibody against poly (ADP-ribose) polymerase (PARP) (Santa Cruz Biotechnology, Santa Cruz, Calif.) (1;3,000) in an antibody buffer comprising (1% (wt/vol) non-fat dry milk in TTBS (0.05% vol/vol) Tween-20 in TBS), washed 3 times with TTBS and finally incubated for 1 hour with a peroxidase-labeled secondary antibody in the antibody buffer. Blots were developed for visualization using ECL detection kit. To test for equal protein loading, the blots were stripped and re-probed with an antibody against tubulin. When processing of a protein was measured, a decrease in unprocessed full-length form was measured concomitantly with the increase in the cleaved, active form. The experiment was repeated 3 times with similar results.
# [4] = tested on: caspase-3; assay: Caspase-3 processing (Western blot); assay type: cell-based, rat; conditions: BSp73AS
# Description: as §1
# [5] = tested on: Akt/PKB; assay: Akt/PKB phosphorylation (Western blot); assay type: cell-based, human; conditions: Mia PACA-2, 72 hours, with serum; genistein 100 μM, LY294002 50 μM
# Description: To determine whether phosphatidylinositol 3-kinase (PI 3-kinase) and Akt/PKB mediate the effects of serum on NF-κB activation and that the effects of polyphenolic compounds on NF-κB activation are due to an ability to inhibit PI 3-kinase, the following assays were conducted. Specifically, to determine the effects of serum, LY294002, a PI 3-kinase inhibitor, and genistein on Akt/PKB phosphorylation, Mia PACA-2 cells were cultured for 72 hours in the absence or presence of serum with or without 100 μM genistein (GN) or 50 μM LY294002. Western blots were performed on whole cell lysates as described above except that specific antibodies against phosphorylated and total Akt/PKB were used (Akt/PKB is Anti-pS473 AktpAB from Promega, Madison Wis. and total Akt is Akt ½ from Santa Cruz, Santa Cruz, Calif.). The membranes were then stripped and re-probed with an antibody against total Akt .
# [6] = tested on: BSp73AS and Mia PACA-2 cells; assay: Caspase-3 activity and annexin staining with MG-132 (FIG. 14C); assay type: cell-based; conditions: polyphenols 100 μM, MG-132 20 μM
SMILES,"lowest concentration with effect on caspase-3 conversion ([1]; Mia PACA-2, 72 hours (FIG. 7A))","conversion of caspase-3 from inactive to active form ([1]; Mia PACA-2, 72 hours, 0-50 μM (FIG. 7A))","Percentage of apoptosis ([2]; TUNEL in primary tumors of quercetin-treated nude mice, means ± SE, n=8)","apoptosis in normal tissues detected by the TUNEL assay ([2]; quercetin-treated nude mice, data not shown)",PARP cleavage [3],lowest concentration with effect on caspase-3 conversion ([4]; 24 hours (FIG. 6A)),"conversion of caspase-3 from inactive to active form ([4]; 24 hours, no serum, 0-50 μM (FIG. 6A))",serum-induced Akt/PKB phosphorylation/activation [5],apoptosis (annexin staining) [6]
O=c1c(O)c(-c2ccc(O)c(O)c2)oc2cc(O)cc(O)c12 [quercetin],20 µM,convert caspase-3 from its inactive form (32 kDa doublet) to its active form (17 kDa),7.10 ± 1.00 %,no increase in apoptosis,cleaved to its activated form,–,–,–,–
Oc1ccc(/C=C/c2cc(O)cc(O)c2)cc1 [trans-resveratrol],–,–,–,–,cleaved to its activated form,20 µM,convert caspase-3 from its inactive form (32 kDa doublet) to its active form (17 kDa),–,–
O=c1c(-c2ccc(O)cc2)coc2cc(O)cc(O)c12 [genistein],–,–,–,–,–,–,–,attenuated serum-induced Akt phosphorylation/activation,causes significant apoptosis
